Assay results reported in patent US20180050033A1, “ANTIFUNGAL TREATMENT OF RHEUMATOID ARTHRITIS” (Gerbe Labs Inc., priority 2016, published 2018).
Converted amounts (≈) assume the structure as drawn.

Tests used:
Format in all cases: cell-based
[1] = system: co-culture of Aspergillus fumigatus + Candida albicans spores (1:1); experiment: Broth microdilution MIC assay, co-culture
Experimental: (§1) Broth Microdilution Minimal Inhibitory Concentration (MIC) assays were performed to obtain the MIC values for Itraconazole and Ketoconazole with an antibiotic (Vancomycin or Tobramycin or Amikacin) against the two fungal strains.
(§2) Fungal strains: Aspergillus fumigatus MYA3626 and Candida albicans ATCC 90028 strains were obtained from the American Type Culture Collection (Manassas, Va.). The strains were maintained as a frozen glycerol stocks at −80° C. The fungal strains were prepared by thawing a glycerol stock, streaking and growing onto Sabouraud's Dextrose Agar (SDA) plates, overnight at 35±2° C. in aerobic conditions and used for the assay.
(§3) Antifungal agents: Itraconazole (Cat #16657, Lot #087K1322), Ketoconazole (Cat # K1003, Lot # SLBR1290V). Stocks were prepared in appropriate solvents following the CLSI guidelines. See, for example, Reference method for broth dilution antifungal susceptibility testing of filamentous fungi, approved standard, 2nd ed. CLSI document M38-A2, vol. 28. CLSI, Wayne, Pa. (2008).
(§4) The completely synthetic medium RPMI-1640 (with glutamine, without bicarbonate, and with phenol red as a pH indicator) was buffered with 0.165 mol/L MOPS (3-[N-morpholino] propanesulfonic acid) buffer was used as the growth medium for the fungal strains. Overnight cultures of the fungal strains were grown on Difco™ Sabouraud's Dextrose Agar (SDA) plates at 35° C. To induce conidium and sporangiospore formation, the culture plates were transferred to incubator and grown for 5-7 days 30° C. or until good sporulation was obtained. Approximately, 10 mL of 0.85% saline containing 0.01% of Tween 80 was used to poured on to the agar plate containing conidia or sporangiospores and hyphal fragments. The suspension containing conidia or sporangiospores and hyphal fragments was aspirated and transferred to a sterile tube. This mixture was filtered to separate the spores from the vegetative cells of the fungi. The supernatant containing only fungal spores was used for all the assays. Fungal spore inoculum was prepared in RPMI-1640 (with glutamine, without bicarbonate, and with phenol red as a pH indicator) was buffered with 0.165 mol/L MOPS (3-[N-morpholino] propanesulfonic acid) buffer to a final density of 10^6 CFU/mL using a hemocytometer.
(§5) Each MIC assay included 11 2-fold serial dilutions of the antifungal agents. Test concentrations for the test articles were tested at the following concentrations: 64 μg/mL, 32 μg/mL, 16 μg/mL, 8 μg/mL, 4 μg/mL, 2 μg/mL, 1 μg/mL, 0.5 μg/mL, 0.25 μg/mL, 0.125 μg/mL, and 0.0625 μg/mL. Broth microdilution assays were performed according to the procedures detailed in CLSI document M38-A2 (CLSI, 2008). Briefly, 2× stock solutions of test articles were prepared at 128 μg/mL. A two-fold serial dilution of the stock solution were performed. Diluted stock solutions of the fungal spores were adjusted (to be equivalent to 10^6 CFU/mL). 1× final concentration of the antifungals was obtained when they were combined with the fungal spore broth in the microtiter plate. Plates were incubated for 3-5 days at 35±2° C. in an ambient air incubator. MIC values recorded are the minimum concentration of the test articles that inhibits growth as observed by unaided eye. The MIC values was expressed in μg/mL. The assay was carried out in duplicates.

[2] = system: Candida albicans ATCC 90028 spores; experiment: Broth microdilution MIC assay; details: Candida albicans alone
Experimental: as §1, §2, §3, §4, §5

[3] = system: Aspergillus fumigatus MYA3626 spores; experiment: Broth microdilution MIC assay; details: MYA3626SPORES
Experimental: as §1, §2, §3, §4, §5

[4] = system: Candida albicans ATCC 90028 spores; experiment: Checkerboard synergy assay; details: ATCC90028, FIG. 6 synergy data, agent alone
Experimental: (§6) This study evaluated the synergistic activity of 2 antifungal agents (Itraconazole and Ketoconazole) with an antibiotic (Vancomycin or Tobramycin or Amikacin) against the spores of 2 fungi; Aspergillus fumigatus MYA3626 and Candida albicans ATCC 90028; individually as well as in co-cultivation (Aspergillus fumigatus+Candida albicans). Synergy testing was carried out as per checkerboard assay by Victor Lorian methodology. See, for example, Lorian, V. Antibiotics in Laboratory Medicine. Edition 5: (2005).
(§7) In vitro activity of the test articles were tested in combination by the Checkerboard assay. See, for example, Lorian, V. Antibiotics in Laboratory Medicine. Edition 5: (2005). The assay was carried out in duplicates. The starting concentrations for the test articles was determined as per the MIC data. Two-fold serial dilutions of 8×MIC for the antifungal agents; Itraconazole and Ketoconazole was performed separately. When Itraconazole and Ketoconazole were combined in a microtiter plate, the concentration of both agents was 2×MIC. 1× final concentration of the antifungal agents were obtained when they were combined with the 10^6 CFU/mL fungal spore inoculum in the microtiter plate. The plates were incubated at 35° C. for 3-5 days. The assay plates were visually inspected to confirm the MIC endpoint and used to calculate the Fractional Inhibitory Concentration (FIC) Index to determine any synergistic interaction.
(§8) The FIC Index was calculated as follows:
(§9) FIC Index=FICA+FICB • where, A and B are the MIC of the test article and an antifungal in combination (in a single well). MICA and MICB are the MICs of each antifungal individually.
(§10) FIC Index value was used to categorize the interaction, as follows:
(§11) To determine if Itraconazole and Ketoconazole combination had synergistic antifungal activity, a synergy assay was carried out with Itraconazole (1 μg/mL, 0.5 μg/mL, 0.25 μg/mL, 0.125 μg/mL, 0.0625 μg/mL, 0.0312 μg/mL, and 0.0156 μg/mL) and Ketoconazole (8 μg/mL, 4 μg/mL, 2 μg/mL, 1 μg/mL, 0.5 μg/mL, 0.25 μg/mL, 0.125 μg/mL, 0.0625 μg/mL, 0.0312 μg/mL, 0.0156 μg/mL and 0.0078 μg/mL) against Aspergillus fumigatus alone, Candida albicans alone, and against Aspergillus fumigatus+Candida albicans co-culture.

[5] = system: Aspergillus fumigatus MYA3626 spores; experiment: Checkerboard synergy assay; details: MYA3626SPORES, FIG. 5 synergy data, agent alone
Experimental: as §6, §7, §8, §9, §10, §11

[6] = system: co-culture of Aspergillus fumigatus + Candida albicans spores (1:1); experiment: Checkerboard synergy assay, co-culture; details: FIG. 7 synergy data, agent alone
Experimental: as §6
as §7, with “The assay plates were visually inspected to confirm the MIC endpoint and used to calculate the Fractional Inhibitory Concentration (FIC) Index to determine any synergistic interaction.” left out
The FIC Index was calculated as follows: […]

[7] = system: Candida albicans; experiment: Culture and sensitivity, Patient 7; details: culture from Patient 7
From the text: (§12) The patient underwent the standard workup for CRS, sleep disorder, and nasal obstruction, plus our diagnostic skin test and sinus CT scan.

[8] = system: S. aureus, a gram negative bacteria; experiment: Culture and sensitivity, Patient 7; details: culture from Patient 7
From the text: as §12

[9] = Aspergillus fumigatus, Table 3, read-out: MIC
[10] = Aspergillus fumigatus, Table 4, repeated MIC study, agent alone, read-out: MIC
[11] = ATCC90028, Table 3, 10^6 CFU/mL spores, 3-5 days at 35° C., read-out: MIC
[12] = Table 3, Aspergillus fumigatus alone, 10^6 CFU/mL spores, 3-5 days at 35° C.
[13] = Table 4, repeated MIC study, Aspergillus fumigatus alone

MIC [1, 9] [mg/L]	MIC [1, 10] [mg/L]	MIC ([1]; Table 4, repeated MIC study, agent alone, listed as Itraconazone) [mg/L]	MIC [2, 11] [mg/L]	MIC ([2]; Table 4, repeated MIC study) [mg/L]	MIC [3, 12] [mg/L]	MIC [3, 13] [mg/L]	MIC [4] [mg/L]	MIC [5] [mg/L]	MIC [6] [mg/L]	SMILES	Sensitivity of cultured Candida albicans [7]	Sensitivity of cultured bacteria [8]
0.5 (≈ 0.709 µM)	1 (≈ 1.42 µM)	1 (≈ 1.42 µM)	0.06 (≈ 0.085 µM)	0.06 (≈ 0.085 µM)	0.5 (≈ 0.709 µM)	1 (≈ 1.42 µM)	> 0.0312	> 0.5	> 0.5	CCC(C)n1ncn(-c2ccc(N3CCN(c4ccc(OCC5COC(Cn6cncn6)(c6ccc(Cl)cc6Cl)O5)cc4)CC3)cc2)c1=O (stereo not drawn) [Itraconazole]	–	–
16 (≈ 30.1 µM)	8 (≈ 15.1 µM)	–	0.06 (≈ 0.113 µM)	0.06 (≈ 0.113 µM)	16 (≈ 30.1 µM)	8 (≈ 15.1 µM)	> 0.0312	> 4	> 4	CC(=O)N1CCN(c2ccc(OCC3COC(Cn4ccnc4)(c4ccc(Cl)cc4Cl)O3)cc2)CC1 (stereo not drawn) [Ketoconazole]	sensitive	–
–	–	–	–	–	–	–	–	–	–	NC[C@H]1O[C@H](O[C@H]2[C@H](O)[C@@H](O[C@H]3O[C@H](CO)[C@@H](O)[C@H](N)[C@H]3O)[C@H](N)C[C@@H]2N)[C@H](N)C[C@@H]1O [tobramycin]	–	sensitive
